{"source": "the supplement of paper PMC10307832", "assay_in_all_cases": "relative viability (nuclei count vs DMSO), 5 days (fraction); higher = more cells survive", "key": {"[1]": {"compound": "COc1cc2nc(N3CCCN(C)CC3)nc(NC3CCN(Cc4ccccc4)CC3)c2cc1OC + CC(=O)Nc1cccc(-n2c(=O)n(C3CC3)c(=O)c3c(Nc4ccc(I)cc4F)n(C)c(=O)c(C)c32)c1 [Trametinib] (partner 0.02 µM)", "procedure,_shortened": "(§1)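 Cells from lung cancer lines were seeded into 1536-well plates and, one day later, dosed by pin tool. Treatments were either a single drug or a fixed dose of an anchor drug with five library-drug doses (not always all listed) in √10 steps. After 5 days, nuclei were stained in a one-step fixation (final 0.05% Triton X-100, 1% formaldehyde, 1 ug/ml Hoechst) and counted on 4× images, and relative viability is the treated-to-vehicle nuclei ratio, as the median of duplicate plates.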"}, "[2]": {"compound": "COc1cc2nc(N3CCCN(C)CC3)nc(NC3CCN(Cc4ccccc4)CC3)c2cc1OC + CC1(C)CCC(c2ccc(Cl)cc2)=C(CN2CCN(c3ccc(C(=O)NS(=O)(=O)c4ccc(N[C@H](CCN5CCOCC5)CSc5ccccc5)c(S(=O)(=O)C(F)(F)F)c4)cc3)CC2)C1 [Navitoclax] (partner 0.5 µM)", "procedure,_shortened": "as §1"}, "[3]": {"compound": "COc1cc2nc(N3CCCN(C)CC3)nc(NC3CCN(Cc4ccccc4)CC3)c2cc1OC + COc1cc2c(Oc3ccc(NC(=O)C4(C(=O)Nc5ccc(F)cc5)CC4)cc3F)ccnc2cc1OCCCN1CCOCC1 [Foretinib] (partner 0.25 µM)", "procedure,_shortened": "as §1"}, "[4]": {"compound": "COc1cc2nc(N3CCCN(C)CC3)nc(NC3CCN(Cc4ccccc4)CC3)c2cc1OC + Cc1cc(Nc2cc(N3CCN(C)CC3)nc(Sc3ccc(NC(=O)C4CC4)cc3)n2)n[nH]1 [Tozasertib] (partner 0.1 µM)", "procedure,_shortened": "as §1"}}}
{"cell line": "UMC-11", "values": [{"measurement": "relative viability", "setting": "[1]; first compound 0.2 µM", "result": 0.741}, {"measurement": "relative viability", "setting": "[1]; first compound 0.6325 µM", "result": 0.729}, {"measurement": "relative viability", "setting": "[1]; first compound 2 µM", "result": 0.836}, {"measurement": "relative viability", "setting": "[1]; first compound 6.325 µM", "result": 0.517}, {"measurement": "relative viability", "setting": "[2]; first compound 0.2 µM", "result": 0.315}, {"measurement": "relative viability", "setting": "[2]; first compound 0.6325 µM", "result": 0.333}, {"measurement": "relative viability", "setting": "[2]; first compound 2 µM", "result": 0.317}, {"measurement": "relative viability", "setting": "[2]; first compound 6.325 µM", "result": 0.254}, {"measurement": "relative viability", "setting": "[3]; first compound 0.2 µM", "result": 0.943}, {"measurement": "relative viability", "setting": "[3]; first compound 0.6325 µM", "result": 1.05}, {"measurement": "relative viability", "setting": "[3]; first compound 2 µM", "result": 1.15}, {"measurement": "relative viability", "setting": "[3]; first compound 6.325 µM", "result": 0.826}, {"measurement": "relative viability", "setting": "[4]; first compound 0.2 µM", "result": 0.202}, {"measurement": "relative viability", "setting": "[4]; first compound 0.6325 µM", "result": 0.214}, {"measurement": "relative viability", "setting": "[4]; first compound 2 µM", "result": 0.212}, {"measurement": "relative viability", "setting": "[4]; first compound 6.325 µM", "result": 0.2}]}
